Assay results taken from patent US20040167189A1, “Materials and methods for inhibiting Wip1” (The Government of the U.S.A., as Represented by the …, priority 2002, published 2004).
Several values for one entry are separate records, joined by “and”; a condition that tells them apart may be missing. Equal values may be shown once. Read-outs that look alike come from different tables or passages of the source.

Experiments:
recombinant Wip1 = recombinant Wip1 (Homo sapiens, UniProt O15297); conditions: for relative effectiveness as Wip1 inhibitor (in words): at the concentration of 0.25 μM;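 on all read-outs here: recombinant His-tagged Wip1 dephosphorylating a phosphoserine peptide for 1 h at 30 °C, read by fluorescence quench (ex 560, em 590 nm), signal rising with dephosphorylation, DMSO-only reactions as control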
Excerpt: Phosphatase activity of Wip1 was monitored with IQ™ Phosphatase Assay Kit (Pierce, Rockford, Ill.). […] At the end of phosphatase reaction, the labeled peptide population contains a mixture of phosphorylated and nonphosphorylated peptide species. The iron-containing compound binds specifically to the phosphorylated peptide present and its fluorescence is quenched. The observed relative fluorescence units increase in proportion to the extent of dephosphorylation of the phosphopeptide. The standard phosphatase assay was performed by incubating 0.2 μg recombinant Wip1 in the buffer, containing 20 mM MOPS, pH 7.0, 20 mM MgCl2, and 30 μM of phosphoserine peptide substrate (LRRApSLG) at 30° C. for 1 hour. The reaction was terminated by addition of 60 μl IQ™ Working Solution. Fluorescent intensity was measured on the Fluorometer at 560/590 ex/em. Compounds (2 ml) from a chemical library of potential Wip1 inhibitors dissolved in 50% DMSO were added to fmal concentration of 10, 1, 0.5, or 0.2 μM. Control reactions contained only 6% DMSO.
Wip1 activity was measured in the presence of 1990 chemical compounds, 10 μM final concentration each.

[1] = molecular target: T1, phosphoserine peptide substrate (LRRApSLG)
T1 chain: LRRASLG

[2] = compound at 0.25 μm, DMSO control 740
[3] = compound at 0.5 μm, DMSO control 740
[4] = compound at 1 μm, DMSO control 725
[5] = compound at 10 μm, DMSO control 1400

Question: `CC(=NN=C([S-])SCc1ccccc1)c1ccccn1.[Cl-].[Cu+2]` [Compound F] was tested. Which “Wip1 Activity” value (recombinant Wip1; [2]) did it give?
Answer: Its value is 740 light units @ 590 nm.

Question: And the “Wip1 Activity” value (recombinant Wip1; [3])?
Answer: The value was 695 light units @ 590 nm.

Question: And the “Wip1 Activity” value (recombinant Wip1; [4])?
Answer: The value was 100 light units @ 590 nm.

Question: What about the “Wip1 Activity” value (recombinant Wip1; [5]) of the same molecule?
Answer: The value was 0 light units @ 590 nm.

Question: Which “Wip1 Activity” value (recombinant Wip1; [2]) does the source give for `Nc1nc(Sc2ccc([N+](=O)[O-])c3nonc23)c2nc[nH]c2n1` [Compound C] here?
Answer: Its value is 745 light units @ 590 nm.

Question: What about the “Wip1 Activity” value (recombinant Wip1; [3]) of the same molecule?
Answer: Its value is 750 light units @ 590 nm.

Question: What about the “Wip1 Activity” value (recombinant Wip1; [4]) of the same molecule?
Answer: The value was 610 light units @ 590 nm.

Question: What about the “Wip1 Activity” value (recombinant Wip1; [5]) of the same molecule?
Answer: The value was 0 light units @ 590 nm.

Question: For `O=C(O)c1cc[c]([Hg][S]c2ncnc3nc[nH]c23)cc1` [Compound K], which “Wip1 Activity” value (recombinant Wip1; [2]) is on record?
Answer: Its value is 630 light units @ 590 nm.

Question: What about the “Wip1 Activity” value (recombinant Wip1; [3]) of the same molecule?
Answer: The value was 680 light units @ 590 nm.

Question: And the “Wip1 Activity” value (recombinant Wip1; [4])?
Answer: Its value is 300 light units @ 590 nm.

Question: What about the “Wip1 Activity” value (recombinant Wip1; [5]) of the same molecule?
Answer: Its value is 0 light units @ 590 nm.

Question: With `O=C1C(Cl)=C(Nc2ccc(S(=O)(=O)Nc3ccccn3)cc2)C(=O)c2ccccc21` [Compound N] as the molecule, how does the “Wip1 Activity” value (recombinant Wip1) read?
Answer: Its value is 645 light units @ 590 nm and 710 light units @ 590 nm and 550 light units @ 590 nm.

Question: What about the “Wip1 Activity” value (recombinant Wip1; [5]) of the same molecule?
Answer: Its value is 0 light units @ 590 nm.

Question: For `Nc1nc([S][Hg][c]2cc([N+](=O)[O-])ccc2O)c2ncn(C3OC(CO)C(O)C3O)c2n1` (centres unmarked) [Compound H], which “Wip1 Activity” value (recombinant Wip1; [2]) is on record?
Answer: The value was 675 light units @ 590 nm.

Question: What about the “Wip1 Activity” value (recombinant Wip1; [3]) of the same molecule?
Answer: Its value is 690 light units @ 590 nm.

Question: What about the “Wip1 Activity” value (recombinant Wip1; [4]) of the same molecule?
Answer: The value was 225 light units @ 590 nm.

Question: And the “Wip1 Activity” value (recombinant Wip1; [5])?
Answer: Its value is 0 light units @ 590 nm.

Question: How did the “relative effectiveness as Wip1 inhibitor (in words)” value (recombinant Wip1) turn out when `Nc1cc[c]([Hg][S]c2nc(N)nc3c2ncn3C2OC(CO)C(O)C2O)cc1` (centres unmarked) [Compound M] was run?
Answer: The value was “most effective inhibitors”.

Question: What about the “Wip1 Activity” value (recombinant Wip1; [2]) of the same molecule?
Answer: Its value is 525 light units @ 590 nm.

Question: What about the “Wip1 Activity” value (recombinant Wip1; [3]) of the same molecule?
Answer: The value was 400 light units @ 590 nm.

Question: What about the “Wip1 Activity” value (recombinant Wip1; [4]) of the same molecule?
Answer: The value was 145 light units @ 590 nm.

Question: What about the “Wip1 Activity” value (recombinant Wip1; [5]) of the same molecule?
Answer: Its value is 0 light units @ 590 nm.

Question: Which “Wip1 Activity” value (recombinant Wip1; [2]) does the source give for `O=[N+]([O-])c1ccc(S(=O)(=O)Cc2ccccc2)c2nonc12` [Compound A] here?
Answer: The value was 745 light units @ 590 nm.

Question: What about the “Wip1 Activity” value (recombinant Wip1; [3]) of the same molecule?
Answer: The value was 725 light units @ 590 nm.

Question: And the “Wip1 Activity” value (recombinant Wip1; [4])?
Answer: Its value is 250 light units @ 590 nm.

Question: And the “Wip1 Activity” value (recombinant Wip1; [5])?
Answer: Its value is 0 light units @ 590 nm.

Question: For `O=C(O)c1c(Br)c(Br)c(Br)c(Br)c1C1c2ccc(O)cc2Oc2cc(O)ccc21` [Compound I], which “Wip1 Activity” value (recombinant Wip1; [2]) is on record?
Answer: The value was 625 light units @ 590 nm.

Question: What about the “Wip1 Activity” value (recombinant Wip1; [3]) of the same molecule?
Answer: The value was 710 light units @ 590 nm.

Question: And the “Wip1 Activity” value (recombinant Wip1; [4])?
Answer: The value was 250 light units @ 590 nm.

Question: What about the “Wip1 Activity” value (recombinant Wip1; [5]) of the same molecule?
Answer: The value was 0 light units @ 590 nm.

Question: Which results are given for `O=C(O)C=Cc1ccc[c]([Sb](=[O])([OH])[OH])c1` [Compound B]?
Answer: Wip1 Activity (recombinant Wip1; [2]): 740 light units @ 590 nm; Wip1 Activity (recombinant Wip1; [3]): 723 light units @ 590 nm; Wip1 Activity (recombinant Wip1; [4]): 575 light units @ 590 nm; Wip1 Activity (recombinant Wip1; [5]): 0 light units @ 590 nm

Question: Which results are given for `CN(C)CN1CSC(=S)N(CN(C)C)C1` [Compound D]?
Answer: Wip1 Activity (recombinant Wip1; [2]): 750 light units @ 590 nm; Wip1 Activity (recombinant Wip1; [3]): 740 light units @ 590 nm; Wip1 Activity (recombinant Wip1; [4]): 595 light units @ 590 nm; Wip1 Activity (recombinant Wip1; [5]): 0 light units @ 590 nm

Question: What does the source list for `CC1=C(Br)C(=O)C(C)=C(Br)C1=O` [Compound L]?
Answer: activity of Wip1 in the presence of compound (in words) (recombinant Wip1; 1 μM final concentration): nearly not detectable; Phosphatase Activity (Wip1) (recombinant Wip1; Compound L at 1 μM final concentration, DMSO control 500): 5 light units @ 590 nm; relative effectiveness as Wip1 inhibitor (in words) (recombinant Wip1): most effective inhibitors; Wip1 Activity (recombinant Wip1; [2]): 375 light units @ 590 nm; Wip1 Activity (recombinant Wip1; [3]): 220 light units @ 590 nm; Wip1 Activity (recombinant Wip1; [4]): 60 light units @ 590 nm; Wip1 Activity (recombinant Wip1; [5]): 0 light units @ 590 nm; decrease of the activity of PP2A (phosphatase PP2A; 1 μM final concentration): 5%; Phosphatase Activity (PP2A) (phosphatase PP2A; Compound L at 1 μM final concentration, DMSO control 760): 690 light units @ 590 nm

B1: recombinant full-size human Wip1 enzyme with His-Tag on the NH2 terminus (protein)
chain: MAGLYSLGVSVFSDQGGRKYMEDVTQIVVEPEPTAEEKPSPRRSLSQPLPPRPSPAALPGGEVSGKGPAVAAREARDPLPDAGASPAPSRCCRRRSSVAFFAVCDGHGGREAAQFAREHLWGFIKKQKGFTSSEPAKVCAAIRKGFLACHLAMWKKLAEWPKTMTGLPSTSGTTASVVIIRGMKMYVAHVGDSGVVLGIQDDPKDDFVRAVEVTQDHKPELPKERERIEGLGGSVMNKSGVNRVVWKRPRLTHNGPVRRSTVIDQIPFLAVARALGDLWSYDFFSGEFVVSPEPDTSVHTLDPQKHKYIILGSDGLWNMIPPQDAISMCQDQEEKKYLMGEHGQSCAKMLVNRALGRWRQRMLRADNTSAIVICISPEVDNQGNFTNEDELYLNLTDSPSYNSQETCVMTPSPCSTPPVKSLEEDPWPRVNSKDHIPALVRSNAFSENFLEVSAEIARENVQGVVIPSKDPEPLEENCAKALTLRIHDSLNNSLPIGLVPTNSTNTVMDQKNLKMSTPGQMKAQEIERTPPTNFKRTLEESNSGPLMKKHRRNGLSRSSGAQPASLPTTSQRKNSVKLTMRRRLRGQKKIGNPLLHQHRKTVCVC
Question: How did the Phosphatase Activity (light units @ 590 nm), DMSO control (light units @ 590 nm) [1] turn out when B1 was run?
Answer: Its Phosphatase Activity (light units @ 590 nm), DMSO control (light units @ 590 nm) is 500.

Question: And the Wip1 Activity (light units @ 590 nm), DMSO control (light units @ 590 nm) [1]?
Answer: Its Wip1 Activity (light units @ 590 nm), DMSO control (light units @ 590 nm) is 1400 and 725 and 740.
